Consider one sequence from article PMC5722318, “Absence of anti-hypocretin receptor 2 autoantibodies in post pandemrix narcolepsy cases” (PLoS ONE, 2017).

Read-outs that look alike come from different tables or passages of the source.

The assay concerns DQ0602. It is filed as binding, human. The note with it: for % Read #1 / Read #1: replicate 1; for % Average: mean of two reads; for % Read #2 / Read #2: replicate 2; for Average: mean of the two raw reads; for Read #1 / Read #2: raw signal read.
[1] abbreviates: % of Bio-EBV binding, first assay (02/04/2016, 07/15/2016 or 08/11/2016, by peptide).
[2] abbreviates: % of Bio-EBV binding, repeat assay (07/19/2016, 07/18/2016 or 08/12/2016, by peptide).
[3] abbreviates: first assay (02/04/2016, 07/15/2016 or 08/11/2016, by peptide).
[4] abbreviates: repeat assay (07/19/2016, 07/18/2016 or 08/12/2016, by peptide).

On to “HDSDKGVTAACPH [HA143-155 146D, synthetic 13-mer hemagglutinin peptide containing mutated 146D]”, for which the “Average (two assays)” value came out at 86.9741%. In addition, the “% Read #1” value (% of Bio-EBV binding (Bio-EBV average = 100), first assay (02/04/2016, 07/15/2016 or 08/11/2016, by peptide)) is given as 75.8456%. Also, under setting [1], the “% Average” value is listed as 83.2638% and the “% Read #2” value was found to be 90.682%. In addition, under setting [2], the “% Average” value was 90.6844%, the “% Read #1” value came out at 90.6154% and the “% Read #2” value was 90.7533%. Besides, under setting [3], the Average is recorded as 15669 and the “Read #2” value stood at 17065. Under setting [4], the Average is on record as 15132.5, the “Read #1” value turned out to be 15121 and the “Read #2” value amounted to 15144. Besides, the “Read #1” value (first assay (02/04/2016, 07/15/2016 or 08/11/2016, by peptide), competition against Bio-EBV epitope) is given as 14273.
